Reference: patent EP4745135A1 (Gluetacs Therapeutics (Shanghai) Co., Ltd., priority 2023, dated 2025)

Tests used:
[1] = system: GSPT1; experiment: Western blot, degradation of substrate protein in hPBMCs; type: cell-based, Human
[2] = target: T1, IKZF3 (Homo sapiens, UniProt Q96SW2+Q9UKT9); experiment: as above; type: cell-based
T1 construct: effects of the compounds of the present disclosure on the expression of target proteins in cells; endogenous in cells; host or cells: human PBMCs (Milecell Biotechnologies)

[3] = target: T2, WEE1 (Homo sapiens, UniProt P30291+Q96SW2); experiment: as above; type: cell-based
T2 construct: effects of the compounds of the present disclosure on the expression of target proteins in cells; endogenous in cells; host or cells: human PBMCs (Milecell Biotechnologies)

[4] = target: T3, CK1α (Homo sapiens, UniProt P48729+Q96SW2); experiment: as above; type: cell-based
T3 construct: effects of the compounds of the present disclosure on the expression of target proteins in cells; endogenous in cells; host or cells: human PBMCs (Milecell Biotechnologies)

[5] = target: T4, IKZF2 (Homo sapiens, UniProt Q96SW2+Q9UKS7); experiment: as above; type: cell-based
T4 construct: effects of the compounds of the present disclosure on the expression of target proteins in cells; endogenous in cells; host or cells: human PBMCs (Milecell Biotechnologies)

[6] = target: T5, IKZF1 (Homo sapiens, UniProt Q13422+Q96SW2); experiment: as above; type: cell-based
T5 construct: effects of the compounds of the present disclosure on the expression of target proteins in cells; endogenous in cells; host or cells: human PBMCs (Milecell Biotechnologies)

[7] = target: T6, human Cereblon WT GST-tagged protein (Homo sapiens, UniProt Q96SW2); experiment: CRBN-binding affinity, HTRF (CEREBLON BINDING kit); conditions: for inhibition at 0.5 µM: read-out: Inhibition Rate at 0.5 µM (%); for inhibition at 2 µM: read-out: Inhibition Rate at 2 µM (%)
T6 construct: purchased CISBIO 64BDCRBNPEH

[8] = Western blot, 24 hours of compound treatment, compounds tested at 50 nM and 500 nM (concentration for the table not stated)
[9] = 24 hours treatment, compounds at 50 nM and 500 nM (concentration behind the class not stated)

T4 sequence (Q9UKS7 whole entry): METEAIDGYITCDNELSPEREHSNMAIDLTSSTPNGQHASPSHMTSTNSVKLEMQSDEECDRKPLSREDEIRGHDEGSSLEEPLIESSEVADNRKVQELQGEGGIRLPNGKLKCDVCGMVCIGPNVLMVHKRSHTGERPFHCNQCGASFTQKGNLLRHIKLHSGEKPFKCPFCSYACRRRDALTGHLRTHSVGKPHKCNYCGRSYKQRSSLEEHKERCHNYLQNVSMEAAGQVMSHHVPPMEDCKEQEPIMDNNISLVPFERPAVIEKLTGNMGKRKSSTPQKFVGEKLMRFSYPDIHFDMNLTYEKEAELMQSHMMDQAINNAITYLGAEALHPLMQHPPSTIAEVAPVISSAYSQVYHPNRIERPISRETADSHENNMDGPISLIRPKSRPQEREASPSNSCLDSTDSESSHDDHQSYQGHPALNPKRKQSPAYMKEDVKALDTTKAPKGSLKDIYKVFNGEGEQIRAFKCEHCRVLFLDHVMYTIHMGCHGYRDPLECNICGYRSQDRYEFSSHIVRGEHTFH
T4 sequence (Q96SW2 whole entry): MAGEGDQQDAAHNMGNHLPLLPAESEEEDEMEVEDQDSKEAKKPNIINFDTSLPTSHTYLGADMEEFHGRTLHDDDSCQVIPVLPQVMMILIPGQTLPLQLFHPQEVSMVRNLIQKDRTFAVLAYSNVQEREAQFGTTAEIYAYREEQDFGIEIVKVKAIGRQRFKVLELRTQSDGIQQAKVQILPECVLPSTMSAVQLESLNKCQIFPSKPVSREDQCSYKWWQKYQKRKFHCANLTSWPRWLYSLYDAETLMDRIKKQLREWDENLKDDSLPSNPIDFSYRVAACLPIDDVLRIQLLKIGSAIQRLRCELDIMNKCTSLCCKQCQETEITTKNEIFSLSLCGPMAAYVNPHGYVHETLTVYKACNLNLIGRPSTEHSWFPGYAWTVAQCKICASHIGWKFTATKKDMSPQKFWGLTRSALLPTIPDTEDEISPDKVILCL
T4 sequence (Q16531 whole entry partner): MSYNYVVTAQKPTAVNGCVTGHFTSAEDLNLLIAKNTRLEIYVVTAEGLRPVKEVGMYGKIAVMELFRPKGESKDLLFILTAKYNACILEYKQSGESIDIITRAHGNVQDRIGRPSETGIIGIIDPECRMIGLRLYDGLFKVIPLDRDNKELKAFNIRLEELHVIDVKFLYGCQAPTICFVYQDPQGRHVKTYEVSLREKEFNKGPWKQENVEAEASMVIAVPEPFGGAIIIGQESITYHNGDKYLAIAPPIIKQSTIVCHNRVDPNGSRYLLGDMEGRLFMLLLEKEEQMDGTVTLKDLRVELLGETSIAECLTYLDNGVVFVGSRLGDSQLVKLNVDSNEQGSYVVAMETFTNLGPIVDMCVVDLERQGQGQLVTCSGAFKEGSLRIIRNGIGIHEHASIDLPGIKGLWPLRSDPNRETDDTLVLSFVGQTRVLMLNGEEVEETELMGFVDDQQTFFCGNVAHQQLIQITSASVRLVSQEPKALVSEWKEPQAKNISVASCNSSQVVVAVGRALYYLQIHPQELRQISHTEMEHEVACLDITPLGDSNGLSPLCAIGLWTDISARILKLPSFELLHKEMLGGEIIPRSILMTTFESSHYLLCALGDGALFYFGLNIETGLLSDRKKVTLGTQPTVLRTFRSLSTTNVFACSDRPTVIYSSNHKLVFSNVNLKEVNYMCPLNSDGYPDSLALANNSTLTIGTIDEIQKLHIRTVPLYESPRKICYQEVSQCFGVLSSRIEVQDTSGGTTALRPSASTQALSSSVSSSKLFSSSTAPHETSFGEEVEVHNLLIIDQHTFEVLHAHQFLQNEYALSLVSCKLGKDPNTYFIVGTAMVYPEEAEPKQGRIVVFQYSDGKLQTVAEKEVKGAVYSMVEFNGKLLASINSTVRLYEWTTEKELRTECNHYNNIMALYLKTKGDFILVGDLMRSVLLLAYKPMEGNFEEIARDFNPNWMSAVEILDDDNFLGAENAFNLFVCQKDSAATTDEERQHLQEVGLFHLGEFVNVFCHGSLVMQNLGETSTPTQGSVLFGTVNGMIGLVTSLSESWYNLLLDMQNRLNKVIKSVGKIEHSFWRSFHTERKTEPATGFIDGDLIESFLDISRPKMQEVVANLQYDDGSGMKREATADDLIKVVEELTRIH
T6 sequence (Q96SW2 whole entry): as the sequence (Q96SW2 whole entry) above
T1 sequence (Q9UKT9 whole entry): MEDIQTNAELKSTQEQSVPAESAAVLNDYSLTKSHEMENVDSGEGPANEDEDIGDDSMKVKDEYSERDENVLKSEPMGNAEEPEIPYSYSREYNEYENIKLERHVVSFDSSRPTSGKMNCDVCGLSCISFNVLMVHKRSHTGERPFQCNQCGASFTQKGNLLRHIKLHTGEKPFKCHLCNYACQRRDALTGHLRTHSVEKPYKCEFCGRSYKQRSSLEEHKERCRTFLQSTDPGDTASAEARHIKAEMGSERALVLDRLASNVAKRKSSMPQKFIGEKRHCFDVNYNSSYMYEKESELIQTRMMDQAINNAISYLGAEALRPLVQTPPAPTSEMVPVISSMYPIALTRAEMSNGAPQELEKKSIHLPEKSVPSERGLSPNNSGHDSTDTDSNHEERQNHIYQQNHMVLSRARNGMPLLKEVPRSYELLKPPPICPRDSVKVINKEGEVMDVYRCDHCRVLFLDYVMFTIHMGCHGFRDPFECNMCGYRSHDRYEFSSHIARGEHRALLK
T1 sequence (Q96SW2 whole entry): as the sequence (Q96SW2 whole entry) above
T1 sequence (Q16531 whole entry partner): as the sequence (Q16531 whole entry partner) above
T5 sequence (Q13422 whole entry): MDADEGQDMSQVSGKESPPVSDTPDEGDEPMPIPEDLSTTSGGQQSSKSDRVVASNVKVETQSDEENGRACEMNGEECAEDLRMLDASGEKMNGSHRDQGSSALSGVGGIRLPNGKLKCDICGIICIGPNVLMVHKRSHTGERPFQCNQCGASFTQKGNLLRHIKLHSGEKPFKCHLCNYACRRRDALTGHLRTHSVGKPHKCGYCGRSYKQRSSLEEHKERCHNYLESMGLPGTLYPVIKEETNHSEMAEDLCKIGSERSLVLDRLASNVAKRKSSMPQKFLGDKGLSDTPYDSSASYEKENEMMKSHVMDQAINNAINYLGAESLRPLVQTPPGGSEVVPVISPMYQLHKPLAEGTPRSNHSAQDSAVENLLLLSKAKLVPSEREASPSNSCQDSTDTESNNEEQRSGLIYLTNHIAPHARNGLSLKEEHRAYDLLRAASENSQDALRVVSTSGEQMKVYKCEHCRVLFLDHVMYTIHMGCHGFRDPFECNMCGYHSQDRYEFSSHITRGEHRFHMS
T5 sequence (Q96SW2 whole entry): as the sequence (Q96SW2 whole entry) above
T5 sequence (Q16531 whole entry partner): as the sequence (Q16531 whole entry partner) above
T3 sequence (P48729 whole entry): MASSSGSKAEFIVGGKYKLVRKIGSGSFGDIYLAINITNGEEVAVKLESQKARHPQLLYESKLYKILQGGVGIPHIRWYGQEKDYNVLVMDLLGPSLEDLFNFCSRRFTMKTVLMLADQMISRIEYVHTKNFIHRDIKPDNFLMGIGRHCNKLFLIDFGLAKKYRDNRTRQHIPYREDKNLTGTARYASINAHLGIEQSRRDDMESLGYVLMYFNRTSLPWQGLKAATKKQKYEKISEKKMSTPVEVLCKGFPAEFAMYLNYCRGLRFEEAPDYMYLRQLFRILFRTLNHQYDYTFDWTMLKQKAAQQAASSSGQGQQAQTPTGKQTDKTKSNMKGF
T3 sequence (Q96SW2 whole entry): as the sequence (Q96SW2 whole entry) above
T3 sequence (Q16531 whole entry partner): as the sequence (Q16531 whole entry partner) above
T2 sequence (P30291 whole entry): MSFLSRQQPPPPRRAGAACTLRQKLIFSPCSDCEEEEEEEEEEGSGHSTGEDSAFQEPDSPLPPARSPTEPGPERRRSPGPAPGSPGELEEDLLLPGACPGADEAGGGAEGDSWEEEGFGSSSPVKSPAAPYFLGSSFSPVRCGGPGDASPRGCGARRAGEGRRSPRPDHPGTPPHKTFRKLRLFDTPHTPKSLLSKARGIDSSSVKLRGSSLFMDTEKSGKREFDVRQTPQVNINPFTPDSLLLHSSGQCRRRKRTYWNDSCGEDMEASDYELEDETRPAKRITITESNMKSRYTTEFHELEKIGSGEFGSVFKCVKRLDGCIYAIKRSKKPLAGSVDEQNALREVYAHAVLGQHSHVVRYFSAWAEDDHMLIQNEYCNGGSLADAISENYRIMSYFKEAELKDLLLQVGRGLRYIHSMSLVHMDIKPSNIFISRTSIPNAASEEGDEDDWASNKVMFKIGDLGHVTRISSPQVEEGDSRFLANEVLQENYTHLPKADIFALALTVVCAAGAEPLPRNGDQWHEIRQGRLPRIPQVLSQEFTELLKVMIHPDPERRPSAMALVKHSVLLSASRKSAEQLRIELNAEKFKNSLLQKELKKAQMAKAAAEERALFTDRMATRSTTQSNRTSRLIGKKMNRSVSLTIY
T2 sequence (Q96SW2 whole entry): as the sequence (Q96SW2 whole entry) above
T2 sequence (Q16531 whole entry partner): as the sequence (Q16531 whole entry partner) above

Compound	GSPT1 substrate protein remaining % [1, 8]	IKZF3 substrate protein remaining % [2, 8]	Wee1 substrate protein remaining % [3, 8]	CK1α substrate protein remaining % [4, 8]	IKZF2 substrate protein remaining % [5, 8]	IKZF 1 substrate protein remaining % [6, 8]	inhibition at 0.5 µM [7]	inhibition at 2 µM [7]	GSPT1 substrate protein remaining % [1, 9]	IKZF3 substrate protein remaining % [2, 9]	Wee1 substrate protein remaining % [3, 9]	CK1α substrate protein remaining % [4, 9]	IKZF2 substrate protein remaining % [5, 9]	IKZF 1 substrate protein remaining % [6, 9]
O=C1CCC(N2Cc3c(CN4CCN(c5ncccc5Cl)CC4)cccc3C2=S)C(=O)N1 (stereo not drawn) [GT-08696, 3-(4-((4-(3-chloropyridin-2-yl)piperazin-1-yl)methyl)-1-thioxoisoindolin-2-yl)piperidine-2,6-dione]	B (80%< substrate protein remaining %≤ 100%)	B (80%< substrate protein remaining %≤ 100%)	A (0% ≤ substrate protein remaining % ≤ 80%)	B (80%< substrate protein remaining %≤ 100%)	B (80%< substrate protein remaining %≤ 100%)	B (80%< substrate protein remaining %≤ 100%)	60 to 80%	80 to 100%						
Cc1nc(N2CCN(Cc3cccc4c3CN(C3CCC(=O)NC3=O)C4=S)CC2)c2c3c(sc2n1)CCC3 (stereo not drawn) [GT-08926, 3-(4-((4-(2-methyl-6,7-dihydro-5H-cyclopenta[4,5]thieno[2,3-d]pyrimidin-4-yl)piperazin-1-yl)methyl)-1-thioxoisoindolin-2-yl)piperidine-2,6-dione]							53 to 60%	80 to 100%	B (80%< substrate protein remaining %≤ 100%)	B (80%< substrate protein remaining %≤ 100%)	A (0% ≤ substrate protein remaining % ≤ 80%)	B (80%< substrate protein remaining %≤ 100%)	B (80%< substrate protein remaining %≤ 100%)	B (80%< substrate protein remaining %≤ 100%)
O=C1CCC(N2Cc3c(CN4CCN(C(c5ccc(Cl)cc5)c5ccc(Cl)cc5)CC4)cccc3C2=S)C(=O)N1 (stereo not drawn) [GT-08203, 3-(4-((4-(bis(4-chlorophenyl)methyl)piperazin-1-yl)methyl)-1-thioxoisoindolin-2-yl)piperidine-2,6-dione]	A (0% ≤ substrate protein remaining % ≤ 80%)	A (0% ≤ substrate protein remaining % ≤ 80%)	A (0% ≤ substrate protein remaining % ≤ 80%)	B (80%< substrate protein remaining %≤ 100%)	A (0% ≤ substrate protein remaining % ≤ 80%)	B (80%< substrate protein remaining %≤ 100%)	30 to 40%	53 to 60%						
O=C1CCC(N2Cc3cc(CN4CCC(c5ccoc5)CC4)ccc3C2=S)C(=O)N1 (stereo not drawn) [GT-08326, 3-(5-((4-(furan-3-yl)piperidin-1-yl)methyl)-1-thioxoisoindolin-2-yl)piperidine-2,6-dione]							40 to 53%	80 to 100%	A (0% ≤ substrate protein remaining % ≤ 80%)	B (80%< substrate protein remaining %≤ 100%)	B (80%< substrate protein remaining %≤ 100%)	A (0% ≤ substrate protein remaining % ≤ 80%)	A (0% ≤ substrate protein remaining % ≤ 80%)	B (80%< substrate protein remaining %≤ 100%)
Cc1ccc(C2=CCN(Cc3cccc4c3CN(C3CCC(=O)NC3=O)C4=S)CC2)s1 (stereo not drawn) [GT-08307, 3-(4-((4-(5-methylthiophen-2-yl)-3,6-dihydropyridin-1(2H)-yl)methyl)-1-thioxoisoindolin-2-yl)piperidine-2,6-dione]							53 to 60%	80 to 100%	B (80%< substrate protein remaining %≤ 100%)	B (80%< substrate protein remaining %≤ 100%)	A (0% ≤ substrate protein remaining % ≤ 80%)	B (80%< substrate protein remaining %≤ 100%)	B (80%< substrate protein remaining %≤ 100%)	B (80%< substrate protein remaining %≤ 100%)
O=C1CCC(N2Cc3cc(CN4CCN(c5ccc(C(F)(F)F)cn5)CC4)ccc3C2=S)C(=O)N1 (stereo not drawn) [GT-09225, 3-(1-thioxo-5-((4-(5-(trifluoromethyl)pyridin-2-yl)piperazin-1-yl)methyl)isoindolin-2-yl)piperidine-2,6-dione]	A (0% ≤ substrate protein remaining % ≤ 80%)	A (0% ≤ substrate protein remaining % ≤ 80%)	B (80%< substrate protein remaining %≤ 100%)	A (0% ≤ substrate protein remaining % ≤ 80%)	B (80%< substrate protein remaining %≤ 100%)	B (80%< substrate protein remaining %≤ 100%)	60 to 80%	80 to 100%						
O=C1CCC(N2Cc3cc(CN4CCN(c5nccc(I)c5F)CC4)ccc3C2=S)C(=O)N1 (stereo not drawn) [GT-09227, 3-(5-((4-(3-fluoro-4-iodopyridin-2-yl)piperazin-1-yl)methyl)-1-thioxoisoindolin-2-yl)piperidine-2,6-dione]	A (0% ≤ substrate protein remaining % ≤ 80%)	B (80%< substrate protein remaining %≤ 100%)	B (80%< substrate protein remaining %≤ 100%)	A (0% ≤ substrate protein remaining % ≤ 80%)	B (80%< substrate protein remaining %≤ 100%)	B (80%< substrate protein remaining %≤ 100%)	60 to 80%	80 to 100%						
O=C1CCC(N2Cc3c(CN4CCC(c5ccsc5)CC4)cccc3C2=S)C(=O)N1 (stereo not drawn) [GT-08315, 3-(4-((4-(thiophen-3-yl)piperidin-1-yl)methyl)-1-thioxoisoindolin-2-yl)piperidine-2,6-dione]							40 to 53%	60 to 80%	B (80%< substrate protein remaining %≤ 100%)	B (80%< substrate protein remaining %≤ 100%)	A (0% ≤ substrate protein remaining % ≤ 80%)	B (80%< substrate protein remaining %≤ 100%)	B (80%< substrate protein remaining %≤ 100%)	B (80%< substrate protein remaining %≤ 100%)
O=C1CCC(N2Cc3c(CN4CCN(c5ncc6ccsc6n5)CC4)cccc3C2=S)C(=O)N1 (stereo not drawn) [GT-08927, 3-(4-((4-(thieno[2,3-d]pyrimidin-2-yl)piperazin-1-yl)methyl)-1-thioxoisoindolin-2-yl)piperidine-2,6-dione]							60 to 80%	80 to 100%	B (80%< substrate protein remaining %≤ 100%)	A (0% ≤ substrate protein remaining % ≤ 80%)	A (0% ≤ substrate protein remaining % ≤ 80%)	B (80%< substrate protein remaining %≤ 100%)	A (0% ≤ substrate protein remaining % ≤ 80%)	B (80%< substrate protein remaining %≤ 100%)
O=C1CCC(N2Cc3cc(CN4CCN(CC5=C(c6ccc(F)cc6)CCCC5)CC4)ccc3C2=S)C(=O)N1 (stereo not drawn) [GT-08164, 3-(5-((4-((4'-fluoro-3,4,5,6-tetrahydro-[1,1'-biphenyl]-2-yl)methyl)piperazin-1-yl)methyl)-1-thioxoisoindolin-2-yl)piperidine-2,6-dione]							40 to 53%	80 to 100%	A (0% ≤ substrate protein remaining % ≤ 80%)	A (0% ≤ substrate protein remaining % ≤ 80%)	A (0% ≤ substrate protein remaining % ≤ 80%)	B (80%< substrate protein remaining %≤ 100%)	A (0% ≤ substrate protein remaining % ≤ 80%)	A (0% ≤ substrate protein remaining % ≤ 80%)
O=C1CCC(N2Cc3c(CN4CCN(c5nccc(I)c5F)CC4)cccc3C2=S)C(=O)N1 (stereo not drawn) [GT-08704, 3-(4-((4-(3-fluoro-4-iodopyridin-2-yl)piperazin-1-yl)methyl)-1-thioxoisoindolin-2-yl)piperidine-2,6-dione]	B (80%< substrate protein remaining %≤ 100%)	A (0% ≤ substrate protein remaining % ≤ 80%)	A (0% ≤ substrate protein remaining % ≤ 80%)	B (80%< substrate protein remaining %≤ 100%)	A (0% ≤ substrate protein remaining % ≤ 80%)	B (80%< substrate protein remaining %≤ 100%)	40 to 53%	80 to 100%						
O=C1CCC(N2Cc3c(CN4CCC(c5cccc(Br)c5)CC4)cccc3C2=S)C(=O)N1 (stereo not drawn) [GT-08507, 3-(4-((4-(3-bromophenyl)piperidin-1-yl)methyl)-1-thioxoisoindolin-2-yl)piperidine-2,6-dione]	B (80%< substrate protein remaining %≤ 100%)	A (0% ≤ substrate protein remaining % ≤ 80%)	A (0% ≤ substrate protein remaining % ≤ 80%)	B (80%< substrate protein remaining %≤ 100%)	B (80%< substrate protein remaining %≤ 100%)	B (80%< substrate protein remaining %≤ 100%)	40 to 53%	60 to 80%						
